One molecule from article PMC10326885, “Design of Heme Enzymes with a Tunable Substrate Binding Pocket Adjacent to an Open Metal Coordination Site” (Journal of the American Chemical Society, 2023) can be followed below.

SMILES strings stand for the structures.

By Kd is commonly meant the free concentration of one partner at which half of the binding sites on the other are occupied at equilibrium, for simple one-to-one binding. A higher Kd goes with weaker binding.

The target in the test is T1, dnHEM1 (synthetic construct, UniProt Z9V042XZY6).
T1 construct: de novo alpha-helical closed solenoid (toroid) from designed scaffold PDB 4YXX, redesigned with Rosetta, surface desymmetrized by K29W and K165Y (already part of dnHEM1); expressed in E. coli; monomer
T1 sequence (Z9V042XZY6 1-210): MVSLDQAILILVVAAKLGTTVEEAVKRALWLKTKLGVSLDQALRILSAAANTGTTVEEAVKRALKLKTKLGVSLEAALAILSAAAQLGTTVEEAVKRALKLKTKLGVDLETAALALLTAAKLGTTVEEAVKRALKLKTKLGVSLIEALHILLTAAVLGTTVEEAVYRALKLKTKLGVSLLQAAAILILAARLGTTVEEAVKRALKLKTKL
In words: UV/Vis titration of hemin into apo-protein, absorbance at […] nm. It is filed as binding.

Consider `C=CC1=C(C)C2=Cc3c(C=C)c(C)c4[n]3[Fe]([Cl])[n]3c(c(C)c(CCC(=O)O)c3=CC3=NC(=C4)C(C)=C3CCC(=O)O)=CC1=N2` [hemin], for which the equilibrium dissociation constant (Kd) came to 2.5 ± 1.2 nM.
